From paper PMC10609148 (Molecules, 2023)
“Also recorded” adds a separate entry of the source.

What was measured:
[1] = biological target: Aβ(1–42)/calbindin-D28k complex (Homo sapiens, UniProt P05067); experiment: Antagonism of Aβ(1–42) HiLyte-Fluor555/calbindin-D28k interaction (fluorescence); format: biochemical, human recombinant calbindin-D28k
Description: The purified protein were aliquoted and conserved in 30% glycerol at −80 °C until use.

[2] = biological target: T1, Aβ(1–42)/CaM complex (Homo sapiens, UniProt P05067); experiment: Antagonism of Aβ(1–42) HiLyte-Fluor555/CaM interaction (fluorescence); format: biochemical, Bovine brain CaM
T1 construct: purchased Merck-Sigma-Aldrich (CaM); AnaSpec (labelled Aβ peptide); host or cells: bovine brain
T1 sequence (P05067 672-713 limits assumed, one chain of several): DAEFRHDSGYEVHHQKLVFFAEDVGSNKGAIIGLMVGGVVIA
Description: Human Aβ(1–42)-HiLyte^TM-Fluor555 was purchased from AnaSpec (Freemont, CA, USA). […] His6 was purchased from Quimigen (Madrid, Spain). Bovine brain CaM and Thrombin Clean Cleavage^TM kit were purchased from Merck-Sigma-Aldrich (Madrid, Spain).
Fluorescence measurements were performed using a Fluoromax+ fluorescence Spectrophotometer (Horiba Jobin Yvon IBH Ltd., Glasgow, UK) in quartz cuvettes of 1cm light pathlength with a total volume of 2.5 mL at room temperature (24–25 °C), with excitation and emission slits of 5 nm.
The measurements of the kinetics of fluorescence have been performed in buffer 50 mM N-[2-hydroxyethyl] piperazine-N′-[2-ethanesulfonic acid], 100 mM KCl and 50 µM CaCl2 (pH 7.05).
CaM and calbindin-D28k were added from concentrated stock solutions freshly prepared in the assay buffer used in the fluorescence measurements, such that the total added volume was always lower than 10 μL.

[3] = system: human recombinant Cb5R with a His6-tag; experiment: FRET between FAD of His6-tagged Cb5R and Aβ(1–42) HiLyte-Fluor555; format: binding; details: calculated for saturation by Aβ(1–42) HiLyte-Fluor555
Description: (§1) The assay buffer was 20 mM phosphate/0.1 mM diethylenetriaminepentaacetic acid (pH 7).

[4] = system: human recombinant Cb5R with a His6-tag; experiment: Inhibition of NADH-dependent Cb5 reductase activity of His6-tagged Cb5R; format: biochemical; details: pH 7, 5 μM Cb5, 0.25 mM NADH
Description: The reaction was started by the addition of 0.25 mM NADH after 10 min preincubation of the Cb5R in the assay medium, and initial rates were measured during periods of time ranging between 5 and 10 min, with a less than 10% drop in the Cb5 concentration in the assay cuvette. The Cb5 reductase activity was calculated from the change of absorbance at 550 nm using a differential extinction coefficient between reduced and oxidized Cb5 of 16.5 mM^−1·cm^−1, as in previous works [67, 69].

[5] = system: human recombinant Cb5R with a His6-tag; experiment: Titration of FAD fluorescence of His6-tagged Cb5R; format: binding
Description: as §1

[6] = 177 μM in phosphate-buffered saline; Tricine-SDS-PAGE; cited from earlier work
[7] = cited from earlier work
Description: Aβ peptides bind to ganglioside-clustered raft-like membrane microdomains, which foster the formation of Aβ oligomers and fibrils in a cholesterol-dependent manner. […] Moreover, plasma membrane lipid rafts play an active role in extracellular Aβ uptake and internalization in neurons. After the uptake of extracellular Aβ(1–42) into neurons, the intracellular ...

Chain of Aβ(1–42)/calbindin-D28k complex (P05067 672-713 limits assumed, one chain of several): as above

Compound: N[C@@H](Cc1c[nH]cn1)C(=O)N[C@@H](Cc1c[nH]cn1)C(=O)N[C@@H](Cc1c[nH]cn1)C(=O)N[C@@H](Cc1c[nH]cn1)C(=O)N[C@@H](Cc1c[nH]cn1)C(=O)N[C@@H](Cc1c[nH]cn1)C(=O)O [His6, hexa-histidine]
- IC50 [1]: ≤ 1 µM
- IC50 [2]: ≤ 1 µM

Compound: Aβ(1–42) HiLyte^TM-Fluor555: Human Aβ(1–42) with HiLyte-Fluor555 dye covalently bound to ASP1; AnaSpec
- quenching of donor FAD fluorescence at saturation [3]: 70 ± 7%

Compound: Aβ(1–42): prevalent Aβ peptide found in the amyloid plaques of AD patients; supplied by StabVida and GenicBio
- inhibition of Cb5 reductase activity (in words) [4]: potent inhibition of this activity by nanomolar Aβ(1–42) concentrations
- fitted maximum of FAD fluorescence increase (ΔF/F0) ([5]; Figure 5 fit, 1:1 binding, triplicate): 0.5227
- effect of Cb5 on the titration of FAD fluorescence ([5]; absence vs presence of 5 μM Cb5): the same in the absence and presence of 5 μM of Cb5; also recorded: not a significant difference
- fraction of monomers and higher molecular species [6]: almost undetectable
- critical concentration that induces fibrillization [7]: submicromolar range
